Measurements reported in patent US10934298B2, “Substituted pyrazolo[1,5-a]pyrimidines for the treatment of medical disorders” (BIAL—BioTech Investments, Inc., priority 2016, dated 2021).

Molecular target: T1, glucocerebrosidase (Gcase) (Homo sapiens, UniProt P04062)
T1 construct: micellar solution containing 10 nM GCase and 100 nM saposin C
T1 sequence (P04062 40-536): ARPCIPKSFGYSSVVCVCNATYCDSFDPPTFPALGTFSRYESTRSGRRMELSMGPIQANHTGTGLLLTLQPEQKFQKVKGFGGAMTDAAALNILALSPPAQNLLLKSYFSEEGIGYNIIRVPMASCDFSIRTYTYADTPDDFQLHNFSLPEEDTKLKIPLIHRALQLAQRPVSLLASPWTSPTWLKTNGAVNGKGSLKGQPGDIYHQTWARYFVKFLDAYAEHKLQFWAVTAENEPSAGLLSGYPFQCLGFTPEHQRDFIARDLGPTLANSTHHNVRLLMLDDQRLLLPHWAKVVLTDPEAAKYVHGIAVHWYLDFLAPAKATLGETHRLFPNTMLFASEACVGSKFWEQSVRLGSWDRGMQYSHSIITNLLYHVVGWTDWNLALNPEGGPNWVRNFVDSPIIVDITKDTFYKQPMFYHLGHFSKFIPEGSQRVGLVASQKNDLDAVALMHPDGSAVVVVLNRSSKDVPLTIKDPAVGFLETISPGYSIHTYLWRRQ
Assay: Glucocerebrosidase (Gcase) activation assay with 4-methylumbelliferyl-beta-D-glucopyranoside substrate, saposin C and phosphatidylserine/triton micelles, fluorescence readout
Type: biochemical
Method in brief: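 Test compounds are first screened at 1.0 and 0.1 μM final, then titrated in 8 points (3-fold from 5 μM) against human GCase with saposin C in phosphatidylserine/triton X-100 micelles at pH 4.7. Reactions run 15 min at room temperature, with fluorescence read at 365/440 nm.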

SMILES | Percent Gcase Activation, 0.1 μM Test Compound (0.1 μM test compound) | Percent Gcase Activation, 1 μM Test Compound (1 μM test compound) | Percent Gcase Activation, 0.1 μM Test Compound (test compound at 0.1 μM) | Percent Gcase Activation, 1 μM Test Compound (test compound at 1.0 μM) | other results
Cc1cc(-c2cc(C#N)ccc2F)nc2c(C(=O)N[C@H](C)C(F)(F)F)cnn12 [III-351] | ** (Gcase activation in the range of 10% up to 20%) | +++ (Gcase activation greater than 60%) |  |  | 
Cc1oc(C#N)cc1-c1cc(C)n2ncc(C(=O)NC(C3CC3)C(F)(F)F)c2n1 (centres unmarked) [III-242] |  |  | *** (greater than 20% Gcase activation) | +++ (Gcase activation greater than 60%) | 
Cc1cc(-c2cccc(C(N)=O)n2)nc2c(C(=O)NC(C3CC3)C(F)(F)F)cnn12 (centres unmarked) [III-161] |  |  | * (less than 10% Gcase activation) | +++ (Gcase activation greater than 60%) | 
Cc1cc(N2CCCN(C(C)C)C2=O)nc2c(C(=O)NC(C)(C)C(F)(F)F)cnn12 [III-262] |  |  | * (less than 10% Gcase activation) | + (less than 30% Gcase activation) | 
Cc1sncc1-c1cc(C)n2ncc(C(=O)N[C@@H](C3CC3)C(F)(F)F)c2n1 [III-388] | *** (greater than 20% Gcase activation) | +++ (Gcase activation greater than 60%) |  |  | 
Cc1cc(-c2cccc(Cl)c2)nc2c(C(=O)N[C@@H](C)C3CC3)cnn12 [III-65] |  |  |  |  | Percent Gcase Activation, 0.1 μM Test Compound (0.1 μM test compound, Table 3A): *** (greater than 20% Gcase activation); Percent Gcase Activation, 1 μM Test Compound (1 μM test compound, Table 3A): +++ (Gcase activation greater than 60%)
Cc1cnc(F)c(-c2cc(C)n3ncc(C(=O)N[C@@H](C4CC4)C(F)(F)F)c3n2)c1 [III-375] | *** (greater than 20% Gcase activation) | +++ (Gcase activation greater than 60%) |  |  | 
Cc1cc(-c2cccc(Cl)n2)nc2c(C(=O)NC(C3CC3)C(F)(F)F)cnn12 (centres unmarked) [III-237] |  |  | *** (greater than 20% Gcase activation) | +++ (Gcase activation greater than 60%) | 
Cc1cc(-c2cccnc2C#N)nc2c(C(=O)N[C@@H](C3CC3)C(F)(F)F)cnn12 [III-366] | *** (greater than 20% Gcase activation) | +++ (Gcase activation greater than 60%) |  |  | 
Cc1cc(-c2ccc(F)cc2C#N)nc2c(C(=O)N[C@H](C)C(F)(F)F)cnn12 [III-155] |  |  | * (less than 10% Gcase activation) | ++ (Gcase activation in the range of 30% up to 60%) | 
Cc1cc(-c2nc3ccccc3n2C)nc2c(C(=O)NC(C3CC3)C(F)(F)F)cnn12 (centres unmarked) [III-312] | ** (Gcase activation in the range of 10% up to 20%) | ++ (Gcase activation in the range of 30% up to 60%) |  |  | 
Cc1cc(-c2cccnc2F)nc2c(C(=O)NC(C3CC3)C(F)(F)F)cnn12 (centres unmarked) [III-113] |  |  | *** (greater than 20% Gcase activation) | +++ (Gcase activation greater than 60%) | 
Cc1cc(-c2cccnc2)nc2c(C(=O)N[C@H]3CC[C@H](OCC(C)C)CC3)cnn12 [III-39] |  |  |  |  | Percent Gcase Activation, 0.1 μM Test Compound (0.1 μM test compound, Table 3A): ** (Gcase activation in the range of 10% up to 20%); Percent Gcase Activation, 1 μM Test Compound (1 μM test compound, Table 3A): +++ (Gcase activation greater than 60%)
Cc1cc(-c2ccc(F)cc2C#N)nc2c(C(=O)NC(C3CC3)C(F)(F)F)cnn12 (centres unmarked) [III-151] |  |  | *** (greater than 20% Gcase activation) | +++ (Gcase activation greater than 60%) | 
Cc1cc(N2CCCN(C(C)C)C2=O)nc2c(C(=O)NC(C)(C)C3CC3)cnn12 [III-261] |  |  | * (less than 10% Gcase activation) | + (less than 30% Gcase activation) | 
C#CC(NC(=O)c1cnn2c(C)cc(-c3cccc(OC)c3)nc12)C(F)(F)F (centres unmarked) [III-96] |  |  | *** (greater than 20% Gcase activation) | +++ (Gcase activation greater than 60%) | 
